As usually defined, the pIC50 is the IC50 on a negative log10 scale, so that one unit is a factor of ten. By solubility is commonly meant the concentration that dissolves in the medium under given conditions. A high value points to much dissolved substance.

pIC50: −log10 of the molar value. Structures can show the parent of a compound that is named as a salt. Where two headings read alike, the source gives them in different places.

For series [1], the target named is T1, TNF-α converting enzyme (Homo sapiens, UniProt P78536).
T1 construct: Human monocyte derived leukemia cell-line U937; endogenous in cells; host or cells: U937 (PMA-differentiated, LPS-stimulated)
Description: Assay for Suppression of TNF-α Production (LPS-stimulated U937 cells). Particulars: U937 cells (PMA-differentiated), Lipopoplysaccaride 0.1 μg/ml, 37° C., 6 hours, TNF-α in supernatant; read-out: Inhibitory activities for TNF-α converting enzyme, IC50 value. It counts as cell-based. The procedure: Human monocyte derived leukemia cell-line U937 [5% bovine fetal serum (Men-eki Seibutsu Ken) was added to RPMI1640 (Nissui Seiyaku) and incubated in a 5% CO2 incubation chamber at 37° C., whereby 1×10^6 cells/1 ml were placed into each well of a multi-well plate and then incubated in presence of Phorbol 12-myristate 13-acetate (10^-7 M, Wako Junyaku) overnight and differentiated to macrophage like cells.] was added with Lipopoplysaccaride (0.1 μg/ml, Sigma) derived from E.coli 0127:B8 strain alone or together with a compound in Examples, and incubated in a 5% CO2 incubation chamber at 37° C. for 6 hours. After the incubation, the culture medium was taken and centrifuged at 3000 g for 10 min., whereby the supernatant was diluted with purified water forthe measurement using the TNF-α measurement kit (Genzyme) (Table 2).

A short description of series [2]: Measurement of Solubility in Water. It counts as physicochemical. Particulars: distilled water, 20±5° C., 30 min., checked by eye. The procedure:
A compound of Examples or a comparative compound was added to distilled water and shaken vigorously at 20±5° C. for 30 seconds at 5 min. interval. After 30 min., it was checked by watching with eye whether the compound was dissolved or not.

In series [3] the target is T2, collagenase (MMP-1) (Homo sapiens, UniProt P03956).
T2 construct: endogenous in cells; host or cells: human fibroblast
T2 sequence (P03956 100-469): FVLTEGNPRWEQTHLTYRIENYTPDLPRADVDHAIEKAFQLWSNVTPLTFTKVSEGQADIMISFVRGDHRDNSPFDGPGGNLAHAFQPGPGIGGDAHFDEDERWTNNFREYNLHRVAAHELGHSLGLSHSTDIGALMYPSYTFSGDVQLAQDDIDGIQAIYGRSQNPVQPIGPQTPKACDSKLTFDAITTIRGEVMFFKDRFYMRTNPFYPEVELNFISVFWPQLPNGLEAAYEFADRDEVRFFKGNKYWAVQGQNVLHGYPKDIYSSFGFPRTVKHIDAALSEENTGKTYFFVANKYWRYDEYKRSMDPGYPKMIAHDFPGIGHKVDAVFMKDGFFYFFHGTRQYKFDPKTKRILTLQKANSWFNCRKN
Description: Assay for Collagenase Inhibitory Activity (MMP-1). In kind it is biochemical. On the procedure: (§1) Inhibitory activities of the compounds represented by the general formula (I) according to the invention for collagenase (metalloproteinase concerned with a tissue destruction) derived from human fibroblast were tested by the method of Y. Murawaki et al., [Journal of Hepatology, 18, p. 328-334 (1993)], and their inhibitory activities for stromelysin derived from human fibroblast were measured by the method of S. S. Twining et al., [Anal. Biochem., 143, p. 30 (1984)].
Inhibitory activities for collagenase (MMP-1) of the compounds of Examples and comparative compounds were measured by the method of Y. Murawaki et al., [Journal of Hepatology, 18, p. 328-334 (1993)]. The latent procollagenase was activated by incubating with mercury aminophenylacetate (2 mM) at 35° C. for 2 hours. The assay was done by using bovine type I collagen labeled with fluorescein as a substrate. The activated collagenase was added to the substrate solution (0.5 mg/ml) in Tris HCl buffer (50 mM, pH 7.5) containing sodium chloride (0.4 M) and calcium chloride (10 mM). The obtained solution was incubated at 35° C. for 2 hours. The enzyme digestion was stopped by the addition of o-phenanthroline (80 mM). The mixture was added with pig spleen elastase solution (25 μg/ml) in the above Tris HCl buffer, and incubated 37° C. for 10 min. The obtained solution was added with 70% ethanol and Tris HCl buffer (170 mM, pH 9.5) containing sodium chloride (0.61 M), whereby the indigested substrate was sedimented by centrifuging at 3000 g for 20 min. The supernatant was taken, and its intensity of fluorescence was determined by the excitation wavelength (495 nm) and the measured wavelength (520 nm), and the inhibitory activity was obtained. IC50 is a concentration of a compound assayed in the digesting enzyme, whereby the splitting of the substrate was decreased to 50% compared with that attained by the enzyme alone.

Series [4] has as its target T3, stromelysin (MMP-3) (Homo sapiens, UniProt P08254).
T3 construct: endogenous in cells; host or cells: human fibroblast
Description: Assay for Stromelysin Inhibitory Activity (MMP-3). In kind it is biochemical. Particulars: fluorescein-labeled casein substrate, 37° C., 2 hours, pH 7.8; read-out: Inhibitory activities for matrix metalloproeinases (MMPs), MMP-3, IC50 value. The procedure:
as §1
Inhibitory activities for stromelysin (MMP-3) of the compounds of Examples and comparative compounds were measured by the method of S. S. Twining et al., [Anal. Biochem., 143, p. 30 (1984)]. The latent prostromelysin was incubated with human plasmin (20 μg/ml) for the activation at 37° C. for 2 hours, and then the incubate was added with diisopropyl fluorophosphate solution (2.8 mg/ml) to stop the reaction. The assay was done by using casein labeled with fluorescein as the substrate. The activated stromelysin was added to a substrate solution (1 mg/ml) in Tris HCl buffer (50 mM, pH 7.8) containing calcium chloride (10 mM). The obtained solution was incubated at37° C. for 2 hours. The enzyme digestion forthesubstrate was stopped by adding 5% trichloroacetic acid. The indigested substrate was sedimented by centrifuging at 3000 g for 20 min. The supernatant was taken and added with Tris HCl buffer (0.5 M, pH 8.5), whereby its intensity of fluorescence was determined by the excitation wavelength (495 nm) and the measured wavelength (520 nm), and the inhibitory activity was obtained. IC50 is a concentration of a compound assayed in the digesting enzyme, whereby the splitting of the substrate was decreased to 50% compared with that attained by the enzyme alone.

Setting [5] is: fluorescein-labeled bovine type I collagen substrate, 35° C., 2 hours, pH 7.5, read-out: Inhibitory activities for matrix metalloproeinases (MMPs), MMP-1, IC50 value.

T3 sequence (P08254 100-477): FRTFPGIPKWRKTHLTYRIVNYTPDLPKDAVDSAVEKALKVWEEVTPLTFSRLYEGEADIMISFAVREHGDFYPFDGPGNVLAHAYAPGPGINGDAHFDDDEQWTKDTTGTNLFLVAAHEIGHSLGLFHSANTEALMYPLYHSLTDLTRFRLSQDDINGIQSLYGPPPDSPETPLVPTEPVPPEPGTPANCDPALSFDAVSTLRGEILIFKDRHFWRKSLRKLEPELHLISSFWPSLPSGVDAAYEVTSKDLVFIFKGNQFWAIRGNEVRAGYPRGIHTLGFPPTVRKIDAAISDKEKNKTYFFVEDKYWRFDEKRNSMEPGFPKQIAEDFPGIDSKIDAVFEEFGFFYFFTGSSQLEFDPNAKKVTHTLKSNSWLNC
T1 sequence (P78536 215-824): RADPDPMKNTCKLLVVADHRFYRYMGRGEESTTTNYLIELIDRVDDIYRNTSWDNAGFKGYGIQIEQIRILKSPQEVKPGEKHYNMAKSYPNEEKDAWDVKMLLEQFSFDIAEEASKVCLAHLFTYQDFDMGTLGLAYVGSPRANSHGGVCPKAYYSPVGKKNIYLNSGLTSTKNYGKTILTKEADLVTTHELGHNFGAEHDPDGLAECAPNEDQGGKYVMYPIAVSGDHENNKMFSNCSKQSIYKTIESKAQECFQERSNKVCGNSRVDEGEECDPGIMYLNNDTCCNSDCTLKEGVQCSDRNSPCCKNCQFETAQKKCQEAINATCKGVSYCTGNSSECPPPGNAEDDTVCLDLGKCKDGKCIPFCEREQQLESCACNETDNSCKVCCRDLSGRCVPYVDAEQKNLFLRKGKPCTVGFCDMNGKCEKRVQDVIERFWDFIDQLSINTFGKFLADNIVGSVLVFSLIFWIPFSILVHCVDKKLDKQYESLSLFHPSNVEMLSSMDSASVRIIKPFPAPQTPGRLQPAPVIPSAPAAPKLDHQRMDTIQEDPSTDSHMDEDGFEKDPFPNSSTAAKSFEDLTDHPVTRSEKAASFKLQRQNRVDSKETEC

Consider `CNC(=O)[C@H](Cc1ccc(S(=O)(=O)O)cc1)NC(=O)[C@H](CC(C)C)C(CSc1cccs1)C(=O)NO` (single isomer, unassigned) [Example 5, N-[4-(N-Hydroxyamino)-2(R)-isobutyl-3(R or S)-(thienylthiomethylene)succinyl]-L-4'-sulfophenylalanine-N-methylamide, Monosodium Salt], for which, in series [1], the pIC50 is 6.30.
For `CNC(=O)[C@H](Cc1ccc(OP(=O)(O)O)cc1)NC(=O)C(CC(=O)NO)CC(C)C` (single isomer, unassigned) [Example 9, N-[4-(N-Hydroxyamino)-2(R or S)-isobutylsuccinyl]-O-phospho-L-tyrosine-N-methylamide, Disodium Salt], in series [2], the solubility at 0.5 h is more than 200 mg/mL. Further, the pIC50 in series [3] was 7.77; in series [4], 6.40.
For `CCC(=N)NCc1ccc(C[C@H](NC(=O)[C@H](CC(C)C)C(CCCc2ccccc2)C(=O)NO)C(=O)NC)cc1` (single isomer, unassigned) [Example 11, N-[4-(N-Hydroxyamino)-2(R)-isobutyl-3(R or S)-(3-phenyltrimethylene)succinyl]-L-4'-propionimidoyliminomethylenephenylalanine-N-methylamide Monoacetate], the pIC50 is 8.24 in series [3] (setting [5]), 6.40 in series [1] and 8.05 in series [4].
For `CNC(=O)[C@H](Cc1cccc(OS(=O)(=O)O)c1)NC(=O)[C@H](CC(C)C)C(CCCc1ccccc1)C(=O)NO` (single isomer, unassigned) [Example 15, N-[4-(N-Hydroxyamino)-2(R)-isobutyl-3(R or S)-(3-phenyltrimethylene)succinyl]-O-sulfo-L-meta-tyrosine-N-methylamide, Monosodium Salt], the solubility at 0.5 h in series [2] (water) came out at 120 mg/mL. Further, the values for the pIC50 in series [3] (setting [5]) and in series [4] were 8.10 and 8.24, respectively.
In the same order, the values of `CNC(=O)[C@H](Cc1ccc(O)cc1)NC(=O)[C@H](CC(C)C)[C@H](CCCc1ccccc1)C(=O)NO` [Comparative Compound 2, N-[4-(N-Hydroxyamino)-2(R)-isobutyl-3(S)-phenyltrimethylenesuccinyl]-L-tyrosine-N-methylamide, reference compound] are less than 1 mg/mL, 9.82 and 8.10.
In the same order, the values of `CCCOC[C@H](C(=O)N[C@@H](Cc1ccc(OC)cc1)C(=O)NC)[C@H](CSC(C)C)C(=O)NO` [Comparative Compound 4, N-[4-(N-Hydroxyamino)-2(R)-n-propyloxymethylene-3(S)-isopropylthiomethylenesuccinyl]-O-methyl-L-tyrosine-N-methylamide, reference compound] are less than 1 mg/mL, 7.96 and 7.00.
In the same order, the values of `CNC(=O)[C@H](Cc1ccc(S(=O)(=O)O)cc1)NC(=O)C(CC(=O)NO)CC(C)C` (stereo partly drawn) [Example 2, N-[4-(N-Hydroxyamino)-2(RS)-isobutylsuccinyl]-L-4'-sulfophenylalanine-N-methylamide, Monosodium Salt] are more than 250 mg/mL, 8.38 and 6.70.
With `COc1ccc(NC(=O)[C@H](Cc2ccc(OS(=O)(=O)O)cc2)NC(=O)[C@H](CC(C)C)C(CCCc2ccccc2)C(=O)NO)cc1` (stereo partly drawn) [Example 7, N-[4-(N-Hydroxyamino)-2(R)-isobutyl-3(RS)-(3-phenyltrimethylene)succinyl]-O-sulfo-L-tyrosine-N-p-methoxyphenylamide, Monosodium Salt], the solubility at 0.5 h in series [2] (water) was 100 mg/mL. In addition, the pIC50 is 8.10 in series [3] (setting [5]) and 8.00 in series [4].
As to `CNC(=O)[C@H](Cc1ccc(NC(=N)N)cc1)NC(=O)[C@H](CC(C)C)[C@H](O)C(=O)NO` [Example 16, N-[4-(N-Hydroxyamino)-2(R)-isobutyl-3(S)-hydroxysuccinyl]-L-4'-guanidophenylalanine-N-methylamide Monoacetate], the pIC50 in series [1] was 5.15.

The values are drawn from US6284914A, “Highly water-soluble metalloproteinase inhibitors” (Fuji Yakuhin Kogyo Kabushiki Kaisha, priority 1995, dated 2001).
